Test results published in patent US20170354152A1, “PESTICIDAL COMPOSITION AND METHOD FOR CONTROLLING PESTS” (priority 2015, published 2017).

Assays:
Format in all cases: in vivo
[1] = tested on: southern root-knot nematode (Meloidogyne incognita); experiment: Example 2: pot test, contaminated soil mixed with test agents, tomato seedlings, root knot index; conditions: compound alone, 35th day after transplantation, non-treated area being 100
Description: 1 Liter of sand soil obtained by mixing paddy steam sterilization soil, sand soil and soil contaminated with southern root-knot nematode (Meloidogyne incognita) in a volume ratio of 2:2:1, was put into a 1/1,000,000 ha pot, and predetermined amounts of test agents were added and mixed, Immediately after addition of the test agents, the mixture was sufficiently mixed, and then, seedlings of tomato (cultivar: kyoryoku bei ju) were transplanted. On the 35th day after transplantation, the root knot index (0 to 100%) formed by nematode was visually determined. The test was carried out by two replications.
Further, a theoretical value determined by the Colby's formula is shown in brackets ( ) in Table 2.

[2] = tested on: southern root-knot nematode (Meloidogyne incognita); experiment: Example 3: cup test, contaminated soil mixed with test agents, cucumber seeds, control value from root knot index; conditions: compound alone, 26th day after seeding, =100−the root knot index
Description: Soil contaminated with southern root-knot nematode (Meloidogyne incognita) was put in a 200 ml polypropylene cup, and predetermined amounts of test agents were added and mixed. Immediately after the addition of the test agents, the mixture was thoroughly mixed and then seeded with three seeds of cucumber. On the 26th day after seeding, the root knot index (0 to 100%) formed by nematode was visually determined.
As the test results, from the root knot index based on the root knot index in the non-treated area being 100, the control value (=100−the root knot index) was calculated, and the results are shown in Tables 3 and 4. Further, a theoretical value obtained by the Colby's formula (=Control value of compound A+Control value of compound B−((Control value of compound A×Control value of compound B)/100)) is also shown in brackets ( ) in Tables 3 and 4.

[3] = tested on: southern root-knot nematode (Meloidogyne incognita); experiment: Test Example 1: immersion of second stage juveniles in chemical solution, mobility inhibition; conditions: compound alone, 24 hours, 25° C.
Description: About 50 larvae at second stage juveniles of southern root-knot nematode (Meloidogyne incognita) were immersed in a chemical solution diluted to a predetermined concentration with distilled water and kept for 24 hours in a constant temperature room at 25° C. […] From these values, the mobility inhibition rate was determined by the following formula.
Mobility inhibition rate (%)=[1-{(1-B/A)/(1-B′/A′)}]×100
Further, a theoretical value (%) of the mobility inhibition rate was calculated by the Colby's formula and is also shown in brackets ( ) in Table 1. The measured value (%) of the mobility inhibition rate is higher than the theoretical value (%), and thus, the composition of the present invention has a synergistic effect for controlling nematode.

Structure (SMILES)	Average root knot index ([1]; 2500 g/ha)	Control value ([2]; 200 g/ha)	Mobility inhibition rate (%) ([3]; 0.31 ppm)	Mobility inhibition rate (%) ([3]; 0.63 ppm)	Mobility inhibition rate (%) ([3]; 1.25 ppm)	Mobility inhibition rate (%) ([3]; 2.5 ppm)	Mobility inhibition rate (%) ([3]; 5 ppm)	Average root knot index ([1]; 3000 g/ha)	Control value ([2]; 125 g/ha)	Control value ([2]; 188 g/ha)	Control value ([2]; 250 g/ha)	Control value ([2]; 375 g/ha)	Control value ([2]; 500 g/ha)	inhibition at 0.31 ppm ([3]; Meloidogyne incognita, 0.31 ppm, read-out: Mobility inhibition rate (%)) [%]	inhibition at 0.63 ppm ([3]; Meloidogyne incognita, 0.63 ppm, read-out: Mobility inhibition rate (%)) [%]	inhibition at 1.25 ppm ([3]; Meloidogyne incognita, 1.25 ppm, read-out: Mobility inhibition rate (%)) [%]	inhibition at 2.5 ppm ([3]; Meloidogyne incognita, 2.5 ppm, read-out: Mobility inhibition rate (%)) [%]	inhibition at 5 ppm ([3]; Meloidogyne incognita, 5 ppm, read-out: Mobility inhibition rate (%)) [%]
O=S(=O)(CCC(F)=C(F)F)c1ncc(Cl)s1 [Fluensulfone, fluensulfone]	25.7	73.3	36.4	41.7	48.1	54.7	69.1	–	–	–	–	–	–	–	–	–	–	–
CCOP(=O)(SC(C)CC)N1CCSC1=O (stereo not drawn) [Fosthiazate, fosthiazate]	–	–	–	–	–	–	–	11.4	70.0	73.3	83.3	90.0	90.0	0.2	15	22.7	55.7	96.2
